From article PMC12266748, “A Xanthine Derivative With Novel Heat Shock Protein 90‐Alpha Inhibitory and Senolytic Properties” (Aging Cell, 2025)

Experiments:
C57BL/6J mice = test: Extended study in geriatric C57BL/6J mice (biochemistry, function, necropsy, cytokines, SA-β-gal in organs); format: in vivo, mouse
Protocol: Sections were prepared from organs and ear biopsies from snap‐frozen tissues and mounted on SuperFrost Plus slides (VWR). SA‐β‐gal staining was performed according to the manufacturer's instructions for the Sigma‐Aldrich‐QIA117 staining kit (Sigma‐Aldrich). Nuclei were counterstained with Nuclear Fast Red (Sigma‐Aldrich), and images were acquired using a Zeiss AxioCam HRc mounted on a Leitz Laborlux S light microscope. The percentage of senescent cells was determined with QuPath v. 0.3.2 (Bankhead et al. [2017]).
All experiments were performed per the European Community Council Directives of 2010/63/UE. The pilot study (PS) investigated safety and potential senolytic efficacy, and the Extended study (ES) investigated functional changes, pathological phenotype, and the principal organ targeted by K5. Protocols were approved according to current Italian law (D.Lgs. n. 26/2014) by OPBA (animal care and health committee) of IRCCS INRCA and by the General Direction of Animal Health and Veterinary Drugs of the Italian Ministry of Health with authorization n°‐137/2021‐PR for PS and authorization n°‐370/2022‐PR for ES. In the PS of p16‐3MR mice (26 months), bioluminescence associated with p16‐expression was monitored before and after treatment, and the health of the mice was longitudinally studied. The ES used geriatric C57BL/6J mice (31 months). Clinical health and physical performance were analyzed before and after K5 treatment. Subsequently, the animals were euthanized, gross necropsies were performed, and organs were collected for further analysis. Detailed protocols are reported in the extended section.
Blood samples were collected from the right retroorbital plexus. Glucose (GLUC), creatinine (CREA), aspartate aminotransferase (AST/GOT), and alanine aminotransferase (ALT/GPT) were determined in EDTA‐plasma by using an automated analyzer (Cobas Mira, Roche) according to the manufacturer's instructions. Cytokines were measured in EDTA‐plasma using the ProcartaPlex Mouse Cytokine & Chemokine Panel 1, 26plex (Thermofisher) and read in the Luminex 200 instrument (Bio‐Rad), following the producer's recommendation.
We measured the clinical frailty index (CFI), Clinical Health Score (CHS), Physical Function Score (PFS), and Vitality Score (VS) in mice, as previously described (Marcozzi et al. [2023]). All frailty measurements were performed in a dedicated INRCA SPF animal facility area. The CFI score for each mouse was calculated as previously published (Whitehead et al. [2014]). The VS was obtained by calculating the arithmetic mean of the individual values of CHS and PFS. Several tests were assessed for endurance and speed Scores; details are reported in the extended methods.
For aged tissues: 10 μm-thick tissue sections were prepared from nine organs (liver, heart, lung, kidney, quadriceps, gastrocnemius, brain cortex, cerebellum, and hippocampus) and ear biopsies with a cryostat from snap-frozen tissues and mounted on SuperFrost Plus slides (VWR, Radnor, PA, USA). SA-β-gal staining was performed according to the manufacturer's instructions of the Sigma-Aldrich-QIA117 staining kit (Sigma-Aldrich, St. Louis, MO, USA). Nuclei were counterstained with Nuclear Fast Red (NFR) (Sigma-Aldrich, St. Louis, MO, USA), and images (from […] sections) were acquired using a Zeiss AxioCam HRc mounted on a Leitz Laborlux S light microscope. The percentage of senescent cells was determined as the mean of 3–4 images from each tissue section by counting the total and SA-β-gal-positive cells with the positive cell detection tool available in the open-source software for digital image analysis, QuPath v. 0.3.2 (Bankhead et al. 2017).
In the extended study, more geriatric C57BL/6J mice were used to confirm safety and investigate the main organs targeted by K5 (Fig. S5). For this purpose, 26 geriatric mice (14 males, 12 females, aged 31 months) and 24 geriatric mice (13 males, 11 females, and 31 months) were treated with K5 and the Vehicle. […]

WI38 cells = test: SA-β-galactosidase colorimetric assay on senescent WI38; format: cell-based, Homo sapiens
Protocol: Previously treated cells were fixed according to the protocols established by the supplier (Cell Signaling). The images were acquired using an optical microscope (Leica) with 5× and 10× magnification (MAG) or the phase microscopy EVOS XL Core at 10× MAG and analyzed using the ImageJ software. The mean signal intensity was then normalized for the total number of cells.
β-galactosidase colorimetric assay. For cell cultures: Previously treated cells were fixed with the fixative solution for 10 min at RT according to the protocols established by the supplier (Senescence β-Galactosidase Staining Kit, #9860S, Cell Signaling, Danvers, MA, USA) Cells were then incubated with the substrate, X-gal, in a solution at pH 6, at 37°C, overnight (16 h) (Itahana et al. 2007). The images were acquired using an optical microscope (Leica, Wetzlar, Germany) with 5 and 10X magnification or the phase microscopy EVOS XL Core at 10X magnification. The images were analyzed using the ImageJ software, quantifying the colorimetric signal emitted by each cell. The mean signal intensity was then normalized for the total number of cells.

MCF7 cells = test: Annexin V staining of senescent MCF7 (Incucyte); format: cell-based, Homo sapiens; settings: Tamoxifen-induced senescent MCF7, K5 10 μM, after 24 h, over 96 h
Protocol: Senescent MCF7 cells were treated with K5 and Incucyte Annexin V NIR Dye (Sartorius). Cells were monitored using the Incucyte live‐cell Analysis system (Sartorius). Images were acquired using the phase microscopy EVOS XL Core at 10× magnification and analyzed using the ImageJ software.
Annexin V staining. MCF7 were plated 24 h before the treatment with 4-Hydroxytamoxifen (TAM) 10 μM for 96 h to induce the senescence described by (Lee et al. 2014). Control cultures were treated with equal volumes of 75% ethanol as the vehicle. Then, cells were washed and treated with the senolytic drug K5 10 µM and DMSO as solvent control for another 96 h and with the Incucyte Annexin V NIR Dye (1:200, Sartorius). Cells were monitored using the Incucyte live-cell Analysis system (Sartorius). The images were acquired using the phase microscopy EVOS XL Core at 10X magnification and analyzed using the ImageJ software. The mean signal intensity was then normalized for the total number of cells.

[1] = geriatric C57BL/6J mice, vs control

SMILES: Cc1ccccc1-n1c(=O)n(Cc2ccccc2)c(=O)c2[nH]cnc21 [Compound K5, 1-benzyl-3-(2-methylphenyl)-7H-purine-2,6-dione]
- body weight (C57BL/6J mice; geriatric C57BL/6J mice, throughout the treatment period): remained stable
- plasma levels of glucose, creatinine, GOT, and GPT, treated vs control (C57BL/6J mice; geriatric C57BL/6J mice, two rounds of three injections): no significant differences
- SA-β-gal staining in the liver (C57BL/6J mice; [1]): significantly reduced staining
- SA-β-gal staining in the pancreas (C57BL/6J mice; [1]): significantly reduced staining
- circulating IL-1β (C57BL/6J mice; geriatric C57BL/6J mice, vs controls): significant reduction
- Physical Function Score vs control (C57BL/6J mice; treated male mice): significant increase
- Vitality Score vs control (C57BL/6J mice; treated male mice): significant increase
- tumor incidence at gross necropsy (C57BL/6J mice; treated male mice): lower incidence of tumors
- reduced SA-β-gal+ cells (WI38 cells): 10%
- Annexin V signal (MCF7 cells): significant and stable increase
